ChEMBL document CHEMBL1201862, “PubChem BioAssay data set” (2004)
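Cultured in 96-well plates, cells were exposed to test compound for 48 hours across five concentrations. GI50 is the concentration that inhibits growth by half.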 The source made the active and inactive calls. Cut-off read from the data, not from the text of the source: active = GI50 up to about 1.1 µM and inactive = higher.

Columns and labels:
Experiment in all cases: growth of human tumour cells (NCI), 48 h
[1] = tested on: DMS-114
[2] = tested on: EKVX
[3] = tested on: HCT-116
[4] = tested on: HL-60
[5] = tested on: IGROV-1
[6] = tested on: LOX IMVI
[7] = tested on: Malme-3M
[8] = tested on: NCI-H23
[9] = tested on: NCI/ADR-RES
[10] = tested on: RPMI-8226
[11] = tested on: RXF 393
[12] = tested on: SF-268
[13] = tested on: SF-539
[14] = tested on: SK-MEL-28
[15] = tested on: SK-MEL-5
[16] = tested on: SN12C
[17] = tested on: SNB-19
[18] = tested on: SNB-75
[19] = tested on: UACC-62
[20] = tested on: 786-0

Measured: GI50

CC(C)NC(=O)OCc1c2c(n(C)c1COC(=O)NC(C)C)-c1ccccc1CC2
inactive: [1] 5.43 µM | [2] 14.9 µM | [3] 10 µM | [4] 2.55 µM | [5] 14 µM | [6] 9.31 µM | [7] 5.51 µM | [8] 6.71 µM | [9] 15 µM | [10] 3.23 µM | [11] 12.5 µM | [12] 10.2 µM | [13] 15.4 µM | [14] 13 µM | [15] 14.4 µM | [16] 13 µM | [17] 14.6 µM | [18] 14.1 µM | [19] 12.7 µM

N#COc1ccc(Oc2ccc(OC#N)cc2)cc1
inactive: [20] 39.1 µM | [1] 32.1 µM | [2] > 100 µM | [3] > 100 µM | [4] 46.3 µM | [5] > 100 µM | [6] 19.3 µM | [7] > 100 µM | [8] 70.5 µM | [10] 32 µM | [11] > 100 µM | [12] > 100 µM | [13] 43.5 µM | [14] > 100 µM | [15] > 100 µM | [16] 55.5 µM | [17] > 100 µM | [18] 93.5 µM | [19] 47.1 µM

CC(=O)OC1CC[C@@]2(C)C(CC(OC3OC(CO)C(O)C(O)C3O)[C@]3(C)C2CCC24CC23CC[C@H]4C(C)CC(O)[C@@H](O)C(C)(C)O)C1(C)C (some centres not stated)
inactive: [20] 13.1 µM | [1] 10.8 µM | [2] 16.3 µM | [3] 9.91 µM | [4] 11.6 µM | [5] 11.5 µM | [6] 8.61 µM | [7] 9.51 µM | [8] > 50 µM | [10] 10.3 µM | [11] 12.5 µM | [12] 18.4 µM | [13] 10.3 µM | [14] 9.77 µM | [15] 8.93 µM | [16] 12.7 µM | [17] 14.2 µM | [18] 11.4 µM | [19] 9.2 µM
